ChEMBL document CHEMBL1136683, “Potent and selective aggrecanase inhibitors containing cyclic P1 substituents” (Bioorg Med Chem Lett, 2003)

Key:
[1] = Inhibition of bovine aggrecanase; parameters: species or system Bos taurus
[2] = molecular target: Matrix metalloproteinase-9 (Homo sapiens, UniProt P14780); assay: Affinity for Matrix metalloprotease-9 (MMP-9)
[3] = Bioavailability after peroral administration (10 mg/kg) was determined in rat; assay type: ADME, organism-based; conditions: in vivo, po
[4] = Half life time after intravenous administration (5.0 mg/kg) was determined in rat; assay type: ADME, organism-based; conditions: in vivo
[5] = Vss after intravenous administration (0.5 mg/kg) was determined in dog; assay type: ADME, organism-based, Canis lupus familiaris; conditions: in vivo, read-out: Vss
[6] = Systemic clearance after intravenous administration (0.5 mg/kg) was determined in dog; assay type: ADME, organism-based, Canis lupus familiaris; conditions: in vivo
[7] = Systemic clearance after intravenous administration (5.0 mg/kg) was determined in rat; assay type: ADME, organism-based; conditions: in vivo
[8] = Bioavailability after peroral administration (1 mg/kg) was determined in dog; assay type: ADME, organism-based, Canis lupus familiaris; conditions: in vivo, po
[9] = Tmax after peroral administration (1 mg/kg) was determined in dog; assay type: ADME, organism-based, Canis lupus familiaris; conditions: in vivo, po
[10] = Half life time after intravenous administration (0.5 mg/kg) was determined in dog; assay type: ADME, organism-based, Canis lupus familiaris; conditions: in vivo
[11] = Tmax after peroral administration (10 mg/kg) was determined in rat; assay type: ADME, organism-based; conditions: in vivo, po
[12] = Vss after intravenous administration (5.0 mg/kg) was determined in rat; assay type: ADME, organism-based; conditions: in vivo, read-out: Vss

Chain of Matrix metalloproteinase-9 (P14780 whole entry): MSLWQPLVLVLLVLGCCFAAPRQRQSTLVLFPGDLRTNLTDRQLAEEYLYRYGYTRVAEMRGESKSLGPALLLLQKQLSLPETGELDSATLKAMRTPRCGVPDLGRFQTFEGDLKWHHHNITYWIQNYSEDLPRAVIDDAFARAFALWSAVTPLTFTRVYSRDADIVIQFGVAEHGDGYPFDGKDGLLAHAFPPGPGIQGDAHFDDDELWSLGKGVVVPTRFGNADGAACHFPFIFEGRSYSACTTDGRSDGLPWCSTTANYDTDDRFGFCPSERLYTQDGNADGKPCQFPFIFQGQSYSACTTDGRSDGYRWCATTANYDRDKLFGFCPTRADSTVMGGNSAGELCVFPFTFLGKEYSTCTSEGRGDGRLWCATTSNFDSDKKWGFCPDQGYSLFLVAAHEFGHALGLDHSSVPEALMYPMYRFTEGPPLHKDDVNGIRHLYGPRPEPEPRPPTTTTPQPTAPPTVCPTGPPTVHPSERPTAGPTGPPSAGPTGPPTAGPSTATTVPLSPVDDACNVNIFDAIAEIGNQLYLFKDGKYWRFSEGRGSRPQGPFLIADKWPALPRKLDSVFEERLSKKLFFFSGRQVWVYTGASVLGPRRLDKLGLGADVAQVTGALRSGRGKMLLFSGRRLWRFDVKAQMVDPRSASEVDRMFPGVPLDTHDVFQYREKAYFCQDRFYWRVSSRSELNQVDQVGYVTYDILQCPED

Row | IC50 [1] [µM] | Ki [2] [µM] | SMILES | also measured
1 | 0.012 | – | O=C(NO)[C@@H](NCC1CC1)[C@@H](Cc1cccc(O)c1)C(=O)N[C@H]1c2ccccc2C[C@H]1O | –
2 | > 1 | > 2.13 | CC(C)(C)OC(=O)N1CCC([C@H](C(=O)O)C(Cc2cccc(O)c2)C(=O)N[C@H]2c3ccccc3C[C@H]2O)CC1 (stereo not given in full) | –
3 | 0.028 | 4 | O=C(N[C@H]1c2ccccc2C[C@H]1O)[C@H](Cc1cccc(O)c1)[C@@H](C(=O)NO)C1CCNCC1 | bioavailability [3]: 1%; half-life [4]: 4 h; Vd [5]: 0.2 L/kg; clearance [6]: 0.1 L/h/kg; clearance [7]: 0.5 L/h/kg; bioavailability [8]: 20%; Tmax [9]: 4.3 h; half-life [10]: 3.8 h; Tmax [11]: 1.5 h; Vd [12]: 0.3 L/kg
4 | 0.21 | > 2.13 | CN1CCC([C@H](C(=O)NO)[C@@H](Cc2cccc(O)c2)C(=O)N[C@H]2c3ccccc3C[C@H]2O)CC1 | –
5 | 0.029 | 1.74 | CC(=O)N1CCC(C(C(=O)NO)C(Cc2cccc(O)c2)C(=O)N[C@H]2c3ccccc3C[C@H]2O)CC1 (single isomer, unassigned) | –
6 | 0.114 | > 2.13 | CC(=O)N1CCC(CC(C(=O)NO)C(Cc2cccc(O)c2)C(=O)N[C@H]2c3ccccc3C[C@H]2O)CC1 (single isomer, unassigned) | –
7 | 0.045 | > 2.13 | CCN1CCC(C(C(=O)NO)C(Cc2cccc(O)c2)C(=O)N[C@H]2c3ccccc3C[C@H]2O)CC1 (single isomer, unassigned) | –
8 | 0.007 | 0.832 | CCOC(=O)N1CCC([C@H](C(=O)NO)[C@@H](Cc2cccc(O)c2)C(=O)N[C@H]2c3ccccc3C[C@H]2O)CC1 | –
9 | 0.007 | > 2.13 | O=C(N[C@H]1c2ccccc2C[C@H]1O)[C@H](Cc1cccc(O)c1)[C@@H](C(=O)NO)C1CNC1 | –
10 | 0.003 | 2.1 | CS(=O)(=O)N1CCC([C@H](C(=O)NO)[C@@H](Cc2cccc(O)c2)C(=O)N[C@H]2c3ccccc3C[C@H]2O)CC1 | –
11 | 0.019 | 1.3 | CC(C)(C)OC(=O)N1CCC([C@H](C(=O)NO)[C@@H](Cc2cccc(O)c2)C(=O)N[C@H]2c3ccccc3C[C@H]2O)CC1 | –
12 | 0.003 | 1.49 | O=C(N[C@H]1c2ccccc2C[C@H]1O)[C@H](Cc1cccc(O)c1)[C@@H](C(=O)NO)C1CN(C(=O)C(F)(F)F)C1 | –
13 | 0.097 | > 2.13 | CCC(=O)N1CCC(C[C@H](C(=O)NO)[C@@H](Cc2cccc(O)c2)C(=O)N[C@H]2c3ccccc3C[C@H]2O)CC1 | –
